Measured values as given in PMC5589751, “Synthesis, high-throughput screening and pharmacological characterization of β–lactam derivatives as TRPM8 antagonists” (Scientific Reports, 2017).
“And” between values parts separate entries of the source, which are not always exact repeats. Identical values can stand only once.

Experiments:
Kinetic solubility = assay type: physicochemical
TRPM8 = biological target: T1, TRPM8 (Rattus norvegicus, UniProt Q8R455); experiment: Whole-cell patch clamp in TRPM8-expressing HEK-CR1 cells (menthol, voltage, cold); assay type: cell-based; conditions: for effect on menthol-evoked TRPM8 current at 1 µM / IC50: 500 µM menthol; for effect on cold-evoked TRPM8 current: cold 16 °C; for IC50: whole cell, ratio P2/P1, read-out: IC50, TRPM8 activity evoked by menthol (patch clamp); for Hill coefficient nH: dose-response against 500 µM menthol
T1 construct: expressed in transfected cells
Experimental: As depicted in Fig. 3, perfusion with 500 µM menthol activated a large TRPM8 inward current at −60 mV (Fig. 3, control). […] The extent of TRPM8 activity shown in Fig. 3 corresponds to the ratio of channel activity between the second (P2) and the first (P1) pulses (ratio P2/P1) of menthol in order to take into account the channel desensitization (supplementary information Fig. 3S)[36], [37].
Left: Representative whole-cell voltage clamp recordings from TRPM8-expressing HEK-CR1 cells and compound 41 (A) and 45 (B). Voltage was held at −60 mV. Pre-application of compounds (20 s) was followed by co-application with 500 µM menthol (Control) for 20s. Current traces of different colours denote the different concentrations of compounds tested. Right: Dose response of compound 41 (A, red), 45 (B, blue) TRPM8 blocked activity. Solid line depicts the fitting to a Hill equation. Data are given as mean ± SEM, with n > 4 cells per data point.
Figure 4 Compound 41 abolished the voltage-evoked response on TRPM8. (A) Representative families of TRPM8 ionic currents in absence (Control) or presence of 1 μM 41 elicited with a voltage step protocol consisting of 200-ms depolarizing pulses from −60 to +120 mV in steps of 20 mV (inset). Holding potential −60 mV, time between pulses = 5s. (B) I-V relationships of TRPM8 channel activity in the absence (black) and presence of 1 µM 41 (red).
Figure 5 Compound 41 abolished the cold thermal activity response on TRPM8. Left: Representative families of TRPM8 ionic currents at +80mV in absence (A) or presence of 1µM 41 (B) activated by cold temperature (16 °C) obtained with a 300-ms ramp from −80 to +80 mV in intervals of 2 s during 3 minutes. Holding potential −60 mV. Right: I-V relationships of TRPM8 channel in basal conditions (a, black line), activated by cold in the absence (b, green line) and presence of 1 µM 41 (c, blue line). (C) Ratio currents between pulse 2 and pulse 1 induced by menthol in the absence (black bar) or in the presence (blue bar) of compound 41.
(§1) Electrophysiological recording was carried out 1–3 d after cells seeded. Membrane currents and voltages were recorded by patch clamp using the whole-cell configuration. For whole-cell recordings of HEK-hTRPV1 and HEK-TRPM8 cells, pipette solution contained (in mM) 140 CsCl, 5 EGTA, and 10 HEPES, adjusted to pH 7.2 with CsOH, and bath solution contained (in mM) 140 NaCl, 5 KCl, 2 CaCl2, 2 MgCl2, 5 EGTA, 10 D-glucose, 10 Mannitol and 10 HEPES, adjusted to pH 7.4 with NaOH. In calcium-free bath solution, CaCl2 was replaced with 5mM EGTA. For potassium and sodium recordings, CsCl was substituted by KCl and the pH was adjusted to pH 7.2 with KOH. Patch pipettes were prepared from thin-walled borosilicate glass capillaries (World Precision Instruments, Sarasota, FL, USA), pulled with a horizontal puller (P-97, Sutter Instruments, Novato, CA, USA) to have a tip resistance of 2–4 MΩ when filled with internal solutions. Data were sampled at 10 kHz (EPC10 amplifier with PatchMaster 2.53 software, HEKA Electronics, Lambrecht, Germany) and low-pass filtered at 3 kHz for analysis (PatchMaster 2.53 and GraphPad Prism 5, Graphpad Software, USA). The series resistance was <10 MΩ and to minimize voltage errors was compensated to 60–80%. All measurements were performed at 24–25°C. The temperature was adjusted with a water-cooled Peltier device placed at the inlet of the chamber and controlled by a feedback device (Automatic Temperature Controller TC-324B, Warner Instruments). Cold-sensitivity was investigated with a temperature decrease to 16–18 °C.

HEK-CR1 cells = experiment: MTT-based assay of cytotoxicity; assay type: cell-based; conditions: 24 hours incubation; three concentrations
Experimental: Figure 2S. Effect of derivative 41 and 45 on MTT-based assay of cytotoxicity in HEK-CR1 cells.
A) Cell survival after 24 hours incubation at three concentrations of derivative 41 or B) derivative 45.
Each value is expressed as mean ± SEM. n ≥ 4, ANOVA with Bonferroni post hoc test (*** p < 0.001).
Cell viability assay (MTT)
Cell viability was assessed by the detection of mitochondrial activity in living cells using a modified colorimetric analysis of Blue Tetrazolium Bromide Thiazolyl (MTT). Briefly, HEK293 cells (2 × 10^4 cells/well) were subcultured in 96-well plates, grown until 80–90% confluence, and incubated with increasing concentrations of testing compounds for 24 h. Following treatment, 10 μL of MTT solution (5 mg/mL in phosphate buffered saline) was added to each well and further incubated for 4 h at 37 °C. Subsequently, 100 μL of DMSO was added to each well to dissolve any deposited formazan resulting from cleavage and reduction of MTT by active mitochondrial dehydrogenases. The optical density of each well was measured at 540 nm with a microplate reader (Polastar BMG LABTECH, […]
(1 picture or pasted object on this page, not shown here)

Kv1.1 = Kv1.1 (Homo sapiens, UniProt Q09470); experiment: Whole-cell patch clamp in cells expressing Kv1.1; assay type: cell-based
Experimental: as §1, with “The temperature was adjusted with a water-cooled Peltier device placed at the inlet of the chamber and controlled by a feedback device (Automatic Temperature Controller TC-324B, Warner Instruments). Cold-sensitivity was investigated with a temperature decrease to 16–18 °C.” left out

T1 sequence (Q8R455 whole entry): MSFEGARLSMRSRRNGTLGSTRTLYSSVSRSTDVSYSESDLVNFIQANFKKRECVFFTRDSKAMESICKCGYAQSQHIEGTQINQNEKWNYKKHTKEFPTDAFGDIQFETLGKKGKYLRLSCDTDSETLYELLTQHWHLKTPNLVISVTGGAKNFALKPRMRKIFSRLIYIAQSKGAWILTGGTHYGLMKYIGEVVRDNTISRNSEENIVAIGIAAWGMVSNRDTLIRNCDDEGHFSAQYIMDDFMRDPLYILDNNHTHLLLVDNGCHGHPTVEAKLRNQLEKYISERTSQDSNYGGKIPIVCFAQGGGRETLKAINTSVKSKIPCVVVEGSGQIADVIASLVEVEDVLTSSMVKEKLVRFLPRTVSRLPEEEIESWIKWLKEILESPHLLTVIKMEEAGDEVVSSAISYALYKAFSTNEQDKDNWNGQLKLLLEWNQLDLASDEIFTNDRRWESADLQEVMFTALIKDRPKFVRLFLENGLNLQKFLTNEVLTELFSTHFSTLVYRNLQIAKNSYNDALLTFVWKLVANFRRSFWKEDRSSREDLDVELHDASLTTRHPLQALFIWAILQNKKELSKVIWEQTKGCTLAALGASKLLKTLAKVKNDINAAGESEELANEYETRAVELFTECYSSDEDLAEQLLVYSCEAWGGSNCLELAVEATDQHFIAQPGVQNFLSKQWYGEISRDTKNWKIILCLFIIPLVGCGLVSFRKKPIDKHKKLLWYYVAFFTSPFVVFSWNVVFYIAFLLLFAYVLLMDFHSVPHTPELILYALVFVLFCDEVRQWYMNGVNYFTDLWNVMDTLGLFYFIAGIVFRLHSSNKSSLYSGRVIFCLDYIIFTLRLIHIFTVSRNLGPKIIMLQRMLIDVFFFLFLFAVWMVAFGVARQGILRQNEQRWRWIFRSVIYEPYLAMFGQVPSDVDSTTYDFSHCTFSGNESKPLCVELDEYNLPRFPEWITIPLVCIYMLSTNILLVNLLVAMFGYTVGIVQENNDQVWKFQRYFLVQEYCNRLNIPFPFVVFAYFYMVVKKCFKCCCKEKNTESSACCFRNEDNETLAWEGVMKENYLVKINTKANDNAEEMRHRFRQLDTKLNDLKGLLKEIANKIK
Kv1.1, sequence (Q09470 whole entry): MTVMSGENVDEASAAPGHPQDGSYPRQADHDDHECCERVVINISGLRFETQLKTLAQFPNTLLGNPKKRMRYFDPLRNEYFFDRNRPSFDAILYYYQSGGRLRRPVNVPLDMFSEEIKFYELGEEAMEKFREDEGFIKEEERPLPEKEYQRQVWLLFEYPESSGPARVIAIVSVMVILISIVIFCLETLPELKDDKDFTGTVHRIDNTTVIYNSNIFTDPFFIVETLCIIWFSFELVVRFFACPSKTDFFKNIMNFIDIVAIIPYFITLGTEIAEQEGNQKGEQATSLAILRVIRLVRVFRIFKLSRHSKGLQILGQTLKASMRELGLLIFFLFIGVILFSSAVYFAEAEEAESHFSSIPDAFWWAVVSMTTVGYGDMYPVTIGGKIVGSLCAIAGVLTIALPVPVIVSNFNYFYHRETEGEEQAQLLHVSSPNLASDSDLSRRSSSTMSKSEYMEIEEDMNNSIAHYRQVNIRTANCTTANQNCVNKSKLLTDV

CC(C)(C)OC(=O)N[C@@H](CCN1C(=O)CC1(Cc1ccccc1)C(=O)OCc1ccccc1)C(=O)OCc1ccccc1 (stereo partly drawn) [Compound 41, 4R,S-Benzyl-4-benzyloxycarbonyl-1-[(3′S-benzyloxycarbonyl-3-tert-butoxycarbonylamino-3′-benzyloxycarbonyl)prop-1′-yl]-2-oxoazetidine]
Kinetic solubility (Kinetic solubility; 1% DMSO): < 10 µM
Kinetic solubility (Kinetic solubility; 5% DMSO): < 10 µM
effect on menthol-evoked TRPM8 current at 1 µM (TRPM8; 1 µM compound): almost totally absence of current
effect on cold-evoked TRPM8 current (TRPM8; 1 µM compound): significant decrease in the current intensity
reduction of voltage-mediated TRPM8 activity (TRPM8; 1 µM compound, depolarizing voltage +120 mV): 90 ± 2%
agonist activity (activation) on TRPM8 (TRPM8; 1 µM compound, −60 mV): did not produce activation
reversibility of TRPM8 block (TRPM8; 1 µM, menthol pulse four minutes after removal of compound): reversible
IC50 (TRPM8; −60 mV): 46 nM
Hill coefficient nH (TRPM8; −60 mV): −1.5 ± 0.3
cytotoxicity in the MTT assay (HEK-CR1 cells): did not display apparent cytotoxicity
IC50 (Kv1.1): > 1000 nM

CC1C(=O)N(CC[C@H](NC(=O)OC(C)(C)C)C(=O)OCc2ccccc2)C1(Cc1ccccc1)C(=O)OCc1ccccc1 (stereo partly drawn) [Compound 45, 4R,S-Benzyl-4-benzyloxycarbonyl-1-[(3′S-benzyloxycarbonyl-3′-tert-butoxycarbonylamino)prop-1′-yl]-(3R,S)-methyl-2-oxoazetidine]
effect on voltage-evoked TRPM8 outward currents (TRPM8; 1 µM compound): reduce significantly
effect on menthol-evoked TRPM8 current at 1 µM (TRPM8; 1 µM compound): almost totally absence of current
effect on cold-evoked TRPM8 current (TRPM8; 1 µM compound): reduce significantly
IC50 (TRPM8; −60 mV): 82.9 nM and 83 nM
Hill coefficient nH (TRPM8; −60 mV): −1.1 ± 0.2
cytotoxicity in the MTT assay (HEK-CR1 cells): did not display apparent cytotoxicity
IC50 (Kv1.1): > 1000 nM
